No end group written: not given here.
Experiments:
[1] = tested on: vasopressin deficient Brattleboro rats; test: In vivo effect on urine output in vasopressin deficient Brattleboro rats; design: species or system rat; settings: 5 μg/kg subcutaneous; for time after injection at which urine excretion was back to original: Brattleboro rats (FIG. 3); for delay in urine excretion: first 8 h (FIG. 2)
Protocol: REAL-AVP was injected subcutaneously in animals (5 μg/kg) and urine was collected at different time points. […] AVP and Pal-AVP have similar effects with a delay in urine excretion of 4 h. A longer delay in urine excretion, up to 6 h, was observed after injection of REAL-AVP. […] The amount of urine excretion was back to original 24 h after injection of Pal-AVP and AVP. However, the effect of REAL-AVP lasted for 3 days (FIG. 3).

[2] = tested on: hyperglycemic (diabetic) Sprague Dawley rats; test: Blood glucose level in streptozotocin-induced diabetic rats after subcutaneous injection; format: in vivo, rat
Protocol: Diabetes was induced in Sprague Dawley rats using i.v. injection of 60 mg/kg, streptozotocin. Solutions of 0.5 Unit/ml insulin or REAL-insulin in borate buffer (pH 10, 0.1M) were prepared. Rats were fasted 16 h prior to the experiment and were injected subcutaneously 0.5 Unit/kg of insulin or REAL-insulin. The blood glucose level of rats was monitored at different time points for 9 h. After this time rats were fed and the blood glucose level was measured after 15 h of feeding. The rats were again fasted and blood glucose level was measured after 16 h. The period of fasting and feeding was continued for 3 days.

fasted diabetic rats = test: Blood glucose level in fasted diabetic rats after oral administration; format: in vivo, rat; settings: 10 U/kg oral, water/oil microemulsion, in 9 hours (FIG. 6)
Protocol: The blood glucose level of rats was increased one week after inducing diabetes from an average of 100 mg/dl to 420 mg/dl (non-fasted rats). […] This is possibly due to the time required for REAL-insulin to be hydrolyzed and to release free insulin. After injection of insulin the fast blood glucose level of rats was back to original within 24 h. However, in the case of the rats treated with REAL-insulin, the drug effect on the fast blood glucose level lasted for 3 days (FIG. 5). Fasted diabetic rats were also administered by oral means 10 U/kg of insulin, REAL-insulin and placebo. Rats were fasted 16 h prior to oral administration. A water/oil microemulsion was used as the drug carrier.

Molecule | time after injection at which urine excretion was back to original [1] [h] | delay in urine excretion ([1]; Brattleboro rats) [h] | effectiveness compared with REAL-AVP ([1]; Brattleboro rats) | time for fast blood glucose level to be back to original ([2]; 0.5 U/kg subcutaneous, diabetic rats (FIG. 5)) [h] | change in blood glucose level within the first hour ([2]; subcutaneous, fasted diabetic rats (FIG. 4)) | reduction of the blood glucose level (fasted diabetic rats)
NC(=O)CC[C@@H]1NC(=O)[C@H](Cc2ccccc2)NC(=O)[C@H](Cc2ccc(O)cc2)NC(=O)[C@@H](N)CSSC[C@@H](C(=O)N2CCC[C@H]2C(=O)N[C@@H](CCCN=C(N)N)C(=O)NCC(N)=O)NC(=O)[C@H](CC(N)=O)NC1=O [AVP, Arginine vasopressin] | 24 | 4 |  |  |  | 
Pal-AVP: Direct lipidization of AVP to palmitic acid (CYFQNCPRG; ends and bridges not checked; also: palmitoylated, position not given here; UniProt P01185 20-28, looked up) | 24 | 4 | not as effective as REAL-AVP |  |  | 
insulin |  |  |  | ≤ 24 | significant drop | no significant reduction

— patent US6590071B1, “Reversible aqueous pH sensitive lipidizing reagents, compositions and methods of use” (University of Southern California, priority 1998, dated 2003)
